Literature values, collected in patent US20130244874A1, “Waterless Composition Comprising Pesticide and Copolymers with Sulfonic Acid Groups” (BASF SE, priority 2010, published 2013).
≈ marks a conversion by molar mass, not a printed value.

Row | Compound | miscibility with water (solvent) | further results
1 | CC(C)CCCCCCOC(=O)C1CCCCC1C(=O)OCCCCCCC(C)C (stereo not shown) [Solvent C, Diisononyl 1,2-cyclohexanedicarboxylate] | – | water-soluble (solvent, temperature not given): < 0.02 mg/L
2 | O=C1CCCO1 [Solvent G, gamma-butyrolactone] | infinitely miscible with water | –
3 | Cn1cc(C(=O)Nc2ccccc2-c2cc(F)c(F)c(F)c2)c(C(F)F)n1 [Fluxapyroxad, reference compound] | – | solubility in water (20° C.): 3.8 µg/mL (≈ 9.97 µM)
4 | C[S+](C)[O-] [Solvent E, DMSO] | infinitely miscible with water | –
